Values quoted from earlier work as cited in US20120276003A1, “COMPOUND CONTAINING AN OXYGEN-15, PREPARATION AND USE THEREOF, AND COMPOSITION COMPRISING THEREOF” (Beijing Top Grade Medical Equipment Co., Ltd., priority 2011, published 2012).

Conditions: perfusion imaging agent; stated 'academically'

one-time through uptake rate: ~100%
SMILES: [15OH2] [^15O-water]
